Test results taken from ChEMBL document CHEMBL1147304, “Antioxidant metabolites from the tunicate Amaroucium multiplicatum” (J Nat Prod, 1989).
Values after ≈ are worked out from the molar mass of the structure shown.

Legend:
Liver microsomes = experiment: Antioxidant activity in rat liver microsomes assessed as inhibition of lipid peroxide formation after 30 mins; type: functional, Microsome
[1] = Inhibition of soybean arachidonate 15-lipoxygenase by oxygen electrode method; parameters: species or system Glycine max

Compound	IC50 (Liver microsomes)	IC50 [1]
CC(C)=CCC/C(C)=C/Cc1cc(O)ccc1O [GEROQUINOL]	0.1 µg/mL (≈ 0.406 µM)	0.2 µg/mL (≈ 0.812 µM)
Cc1cc(C(C)(C)C)c(O)c(C(C)(C)C)c1 [BUTYLATED HYDROXYTOLUENE]	0.3 µg/mL (≈ 1.36 µM)	> 10 µg/mL
COc1cc2c(cc1O)C=CC(C)(CCC=C(C)C)O2 (stereo not drawn)	0.1 µg/mL (≈ 0.364 µM)	0.5 µg/mL (≈ 1.82 µM)
CC(C)=CCCC(C)(O)/C=C/c1cc(O)ccc1O (stereo not drawn)	0.3 µg/mL (≈ 1.14 µM)	
CC(=O)Oc1c(C)c(C)c2c(c1C)CCC(C)(CCC[C@H](C)CCC[C@H](C)CCCC(C)C)O2 (stereo partly drawn) [TOCOPHEROL ACETATE]	> 10 µg/mL	> 10 µg/mL
CC(C)=CCCC1(C)C=Cc2cc(O)ccc2O1 (stereo not drawn) [CORDIACHROMENE A]	0.3 µg/mL (≈ 1.23 µM)	0.2 µg/mL (≈ 0.819 µM)
CC(C)=CCCC(C)(O)CCc1cc(O)ccc1O (stereo not drawn)	0.3 µg/mL (≈ 1.13 µM)	3 µg/mL (≈ 11.3 µM)
